Experimental findings from US9694016B2 (Novartis AG, priority 2013, dated 2017) are described below.

The target of one assay is b-Raf (V600E) (Homo sapiens (Human), UniProt P15056, V600E). The following applies: read-out: b-Raf IC-50; AlphaScreen, 60 min pre-incubation, 3 hours reaction.
b-Raf (V600E), sequence (P15056 whole entry V600E): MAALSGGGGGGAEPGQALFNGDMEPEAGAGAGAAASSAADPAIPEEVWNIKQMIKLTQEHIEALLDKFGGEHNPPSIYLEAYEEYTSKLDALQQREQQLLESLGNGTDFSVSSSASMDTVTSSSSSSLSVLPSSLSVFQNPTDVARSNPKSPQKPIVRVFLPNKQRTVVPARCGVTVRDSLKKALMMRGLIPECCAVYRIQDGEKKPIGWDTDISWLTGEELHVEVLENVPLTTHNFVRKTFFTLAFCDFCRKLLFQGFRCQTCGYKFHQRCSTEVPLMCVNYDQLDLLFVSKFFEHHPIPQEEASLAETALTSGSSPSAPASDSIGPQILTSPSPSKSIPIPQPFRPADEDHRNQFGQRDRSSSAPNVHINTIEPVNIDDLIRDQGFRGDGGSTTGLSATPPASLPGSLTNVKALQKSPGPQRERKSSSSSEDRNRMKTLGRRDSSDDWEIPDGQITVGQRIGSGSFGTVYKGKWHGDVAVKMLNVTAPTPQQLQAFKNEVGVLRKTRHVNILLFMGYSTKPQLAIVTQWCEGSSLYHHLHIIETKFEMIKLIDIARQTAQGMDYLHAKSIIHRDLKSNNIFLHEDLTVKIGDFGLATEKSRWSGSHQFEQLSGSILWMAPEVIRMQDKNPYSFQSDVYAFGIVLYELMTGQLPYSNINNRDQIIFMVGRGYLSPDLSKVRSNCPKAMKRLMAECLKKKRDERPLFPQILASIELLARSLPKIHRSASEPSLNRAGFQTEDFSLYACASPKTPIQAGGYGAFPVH
`CCNc1nc(-c2cc(NC(=O)c3cccc(C(F)F)c3)cnc2C)cc(N2CCOCC2)n1` [Example 722, 3-(difluoromethyl)-N-(5-(2-(ethylamino)-6-morpholinopyrimidin-4-yl)-6-methylpyridin-3-yl)benzamide]: the IC50 came to 1.6 nM.
The same measure, in the same setting: the figure for `Cc1ncc(NC(=O)c2cccc(C(F)(F)F)c2)cc1-c1cc(N2CCOCC2)nc(C(C)(C)O)n1` [Example 788, N-(5-(2-(2-hydroxypropan-2-yl)-6-morpholinopyrimidin-4-yl)-6-methylpyridin-3-yl)-3-(trifluoromethyl)benzamide] is 200 nM; for `CCOc1nnc(-c2cc(NC(=O)c3ccnc(C(C)(C)C#N)c3)cnc2C)cc1N1CCOCC1` [Example 613, 2-(2-cyanopropan-2-yl)-N-(5-(6-ethoxy-5-morpholinopyridazin-3-yl)-6-methylpyridin-3-yl)isonicotinamide] it is 10 nM; for `Cc1ccc(NC(=O)c2cc(C(F)(F)F)ccn2)cc1-c1cc(N2CCOCC2)c(OCCO)nn1` [Example 586, N-(3-(6-(2-hydroxyethoxy)-5-morpholinopyridazin-3-yl)-4-methylphenyl)-4-(trifluoromethyl)picolinamide] it is 1 nM.
In the case of `Cc1ccc(NC(=O)c2cccc(C(F)F)c2)cc1-c1cc(N2CCOCC2)c2nccn2n1` [Example 847, 3-(difluoromethyl)-N-(4-methyl-3-(8-morpholinoimidazo[1,2-b]pyridazin-6-yl)phenyl)benzamide], the IC50 was found to be 0.2 nM.
For the compound `Cc1ccc(NC(=O)c2ccnc(C(C)(C)C#N)c2)cc1-c1cc(C2CCOCC2)c(=O)n(C)n1` [Example 675, 2-(2-cyanopropan-2-yl)-N-(4-methyl-3-(1-methyl-6-oxo-5-(tetrahydro-2H-pyran-4-yl)-1,6-dihydropyridazin-3-yl)phenyl)isonicotinamide], the IC50 worked out at 4.9 nM.
In the case of `CCOc1nnc(-c2cc(NC(=O)c3ccnc(C(C)C)c3)cnc2C)cc1N1CCOCC1` [Example 621, N-(5-(6-ethoxy-5-morpholinopyridazin-3-yl)-6-methylpyridin-3-yl)-2-isopropylisonicotinamide], the IC50 was 2.6 nM.
The same measure, in the same setting: under `Cc1ncc(NC(=O)c2ccnc(C3CC3)c2)cc1-c1cc(N2CCOCC2)n(C)c(=O)c1` [Example 511, 2-cyclopropyl-N-(1′,2-dimethyl-6′-morpholino-2′-oxo-1′,2′-dihydro-[3,4′-bipyridin]-5-yl)isonicotinamide] stands 6.4 nM; under `Cc1ccc(NC(=O)c2cccc(S(C)(=O)=O)c2)cc1-c1cc(N2CCOCC2)n(C)c(=O)c1` [Example 488, N-(4-methyl-3-(1-methyl-6-morpholino-2-oxo-1,2-dihydropyridin-4-yl)phenyl)-3-(methylsulfonyl)benzamide], 1.9 nM.
As for `Cc1ccc(NC(=O)c2ccnc(C(C)(C)C#N)c2)cc1-c1cc(N2CCOC[C@H]2C)c(=O)n(C)n1` [Example 672, (R)-2-(2-cyanopropan-2-yl)-N-(4-methyl-3-(1-methyl-5-(3-methylmorpholino)-6-oxo-1,6-dihydropyridazin-3-yl)phenyl)isonicotinamide], the IC50 was 15.8 nM.
In the case of `CCOc1nnc(-c2cc(NC(=O)c3cccc(C(F)F)c3)ccc2C)cc1N1CCOCC1` [Example 561, 3-(difluoromethyl)-N-(3-(6-ethoxy-5-morpholinopyridazin-3-yl)-4-methylphenyl)benzamide], the IC50 stood at 0.3 nM.
Consider `COCCN(C)c1cc(C(=O)Nc2ccc(C)c(-c3cc(N4CCOCC4)c(=O)n(C)c3)c2)ccn1` [Example 455, 2-((2-methoxyethyl)(methyl)amino)-N-(4-methyl-3-(1-methyl-5-morpholino-6-oxo-1,6-dihydropyridin-3-yl)phenyl)isonicotinamide], for which the IC50 worked out at 2.8 nM.
Consider `Cc1ccc(NC(=O)c2cccc(C(C)(C)C#N)c2)cc1-c1cc(N2CCOCC2)c2nccn2n1` [Example 846, 3-(2-cyanopropan-2-yl)-N-(4-methyl-3-(8-morpholinoimidazo[1,2-b]pyridazin-6-yl)phenyl)benzamide], for which the IC50 is 0.6 nM.
Still for that read-out and setting: the figure for `Cc1ccc(NC(=O)c2ccnc(C(C)(C)C#N)c2)cc1-c1cc(N2CCOCC2)c(OCCO)nn1` [Example 591, 2-(2-cyanopropan-2-yl)-N-(3-(6-(2-hydroxyethoxy)-5-morpholinopyridazin-3-yl)-4-methylphenyl)isonicotinamide] is 2.1 nM.

The assay is the same for the next values; noted with them: read-out: b-Raf IC-50; AlphaScreen, 60 min pre-incubation, reaction 3 hours at room temperature.
For `Cc1ccc(NC(=O)c2cc(C(F)(F)F)ccn2)cc1-c1cc(N2CCOCC2)c(S(C)(=O)=O)nn1` [Example 933, N-(4-methyl-3-(6-(methylsulfonyl)-5-morpholinopyridazin-3-yl)phenyl)-4-(trifluoromethyl)picolinamide], the IC50 amounted to 0.78 nM.
In the case of `Cc1ncc(NC(=O)c2cc(C(F)(F)F)ccn2)cc1-c1cc(N2CCOCC2)c2nccn2n1` [Example 868, N-(6-methyl-5-(8-morpholinoimidazo[1,2-b]pyridazin-6-yl)pyridin-3-yl)-4-(trifluoromethyl)picolinamide], the IC50 is 1.3 nM.
With `Cc1ncc(NC(=O)c2ccnc(C(C)(F)F)c2)cc1-c1cnc(OC2CCOCC2)c(N2CCOCC2)c1` [Example 938, 2-(1,1-difluoroethyl)-N-(2-methyl-5′-morpholino-6′-((tetrahydro-2H-pyran-4-yl)oxy)-[3,3′-bipyridin]-5-yl)isonicotinamide], the IC50 came out at 2.36 nM.
As for `Cc1ncc(NC(=O)c2ccnc(C(C)(F)F)c2)cc1-c1cc(N2CCOCC2)c(OC(C)C)nn1` [Example 912, 2-(1,1-difluoroethyl)-N-(5-(6-isopropoxy-5-morpholinopyridazin-3-yl)-6-methylpyridin-3-yl)isonicotinamide], the IC50 came to 2.25 nM.
Same read-out and setting: under `Cc1ccc(NC(=O)c2ccnc(C(F)(F)F)c2)cc1-c1cc(N2CCNCC2)nc(N2CCOCC2)c1` [Example 1128, N-(4-methyl-3-(2-morpholino-6-(piperazin-1-yl)pyridin-4-yl)phenyl)-2-(trifluoromethyl)isonicotinamide] stands 2.16 nM; under `Cc1ncc(NC(=O)c2ccnc(C(C)(F)F)c2)cc1-c1cc(N2CCOCC2)c(OCC(F)F)nn1` [Example 915, N-(5-(6-(2,2-difluoroethoxy)-5-morpholinopyridazin-3-yl)-6-methylpyridin-3-yl)-2-(1,1-difluoroethyl)isonicotinamide], 1.11 nM; under `Cc1ncc(NC(=O)c2cc(C(F)(F)F)ccn2)cc1-c1cc(N2CCOCC2)c(OCC(F)F)nn1` [Example 916, N-(5-(6-(2,2-difluoroethoxy)-5-morpholinopyridazin-3-yl)-6-methylpyridin-3-yl)-4-(trifluoromethyl)picolinamide], 1.31 nM.
Consider `Cc1ccc(NC(=O)c2ccnc(C(C)(F)F)c2)cc1-c1cc(N2CCOCC2)nc(N2CC(O)C2)c1` [Example 1078, 2-(1,1-difluoroethyl)-N-(3-(2-(3-hydroxyazetidin-1-yl)-6-morpholinopyridin-4-yl)-4-methylphenyl)isonicotinamide], for which the IC50 was 0.67 nM.

Staying with this assay, now noted: read-out: b-Raf IC-50; Table 2; AlphaScreen, 3 hours reaction.
In the case of `Cc1ccc(C(=O)Nc2cccnc2)cc1-c1cc(N2CCOCC2)c(=O)n(C)c1` [Example 433, 4-methyl-3-(1-methyl-5-morpholino-6-oxo-1,6-dihydropyridin-3-yl)-N-(pyridin-3-yl)benzamide], the IC50 came to 200 nM.
For the compound `Cc1ncc(NC(=O)c2cccc(C(F)(F)F)c2)cc1-c1cnc(OC2CN(C)C2)c(N2CCOCC2)c1` [Example 321, N-(2-methyl-6′-((1-methylazetidin-3-yl)oxy)-5′-morpholino-[3,3′-bipyridin]-5-yl)-3-(trifluoromethyl)benzamide], the IC50 was found to be 24.8 nM.
On to `Cc1ccc(NC(=O)c2cccc(C(F)(F)F)c2)cc1-c1cc(N2CCOCC2)cnn1` [Example 59, N-(4-methyl-3-(5-morpholinopyridazin-3-yl)phenyl)-3-(trifluoromethyl)benzamide], for which the IC50 turned out to be 2.8 nM.
For `Cc1ncc(NC(=O)c2cccc(C(F)(F)F)c2)cc1-c1cc(N2CCOCC2)nc(N2CCOCC2)c1` [Example 77, N-(2-methyl-2′,6′-dimorpholino-[3,4′-bipyridin]-5-yl)-3-(trifluoromethyl)benzamide], the IC50 is 0.6 nM.
As for `COCCOc1ncc(-c2cc(NC(=O)c3cccc(C(F)(F)F)c3)cnc2C)cc1N1CCOCC1` [Example 312, N-(6′-(2-methoxyethoxy)-2-methyl-5′-morpholino-[3,3′-bipyridin]-5-yl)-3-(trifluoromethyl)benzamide], the IC50 was 4 nM.
Take `Cc1ccc(NC(=O)c2cccc(-c3nnco3)c2)cc1-c1cc(N2CCOCC2)c(=O)n(C)c1` [Example 349, N-(4-methyl-3-(1-methyl-5-morpholino-6-oxo-1,6-dihydropyridin-3-yl)phenyl)-3-(1,3,4-oxadiazol-2-yl)benzamide]: the IC50 amounted to 6.2 nM.
On to `Cc1ncc(NC(=O)c2ccnc(C(C)(C)F)c2)cc1-c1cnc(N(C)C)c(N2CCOCC2)c1` [Example 268, N-(6′-(dimethylamino)-2-methyl-5-morpholino-[3,3′-bipyridin]-5-yl)-2-(2-fluoropropan-2-yl)isonicotinamide], for which the IC50 amounted to 1.6 nM.
On to `Cc1ncc(NC(=O)c2cccc(C(F)(F)F)c2)cc1-c1cnc(C(C)(C)C#N)c(N2CCOCC2)c1` [Example 326, N-(6′-(2-cyanopropan-2-yl)-2-methyl-5′-morpholino-[3,3′-bipyridin]-5-yl)-3-(trifluoromethyl)benzamide], for which the IC50 turned out to be 3.7 nM.
`Cc1ccc(NC(=O)c2cccc(OC(C)C)c2)cc1-c1cc(N2CCOCC2)c(=O)n(C)c1` [Example 345, 3-isopropoxy-N-(4-methyl-3-(1-methyl-5-morpholino-6-oxo-1,6-dihydropyridin-3-yl)phenyl)benzamide]: the IC50 came to 1.6 nM.
For `Cc1ccc(NC(=O)c2cc(C3CC3)on2)cc1-c1cc(N2CCOCC2)c(=O)n(C)c1` [Example 372, 5-cyclopropyl-N-(4-methyl-3-(1-methyl-5-morpholino-6-oxo-1,6-dihydropyridin-3-yl)phenyl)isoxazole-3-carboxamide], the IC50 worked out at 0.7 nM.
